Counter-ions that a name gives are not always drawn.
Experiments:
[1] = biological target: T1, EZH2 within the PRC2 complex (Homo sapiens (Human), UniProt Q15910); assay: EZH2 methyltransferase SPA, mononucleosome substrate (Assay Protocol 1); assay type: biochemical; settings: HeLa mononucleosome substrate, 3H-SAM, ≦10 nM approaches limit of detection
Experimental: Compounds contained herein were evaluated for their ability to inhibit the methyltransferase activity of EZH2 within the PRC2 complex. Human PRC2 complex was prepared by co-expressing each of the 5 member proteins (FLAG-EZH2, EED, SUZ12, RbAp48, AEBP2) in Sf9 cells followed by co-purification. Enzyme activity was measured in a scintillation proximity assay (SPA) where a tritiated methyl group is transferred from 3H-SAM to a lysine residue on Histone H3 of a mononucleosome, purified from HeLa cells. Mononucleosomes were captured on SPA beads and the resulting signal is read on a ViewLux plate reader.
Part A. Compound Preparation
• 1. Prepare 10 mM stock of compounds from solid in 100% DMSO. • 2. Set up an 11-point serial dilution (1:3 dilution, top concentration 10 mM) in 100% DMSO for each test compound in a 384 well plate leaving columns 6 and 18 for DMSO controls. • 3. Dispense 100 nL of compound from the dilution plate into reaction plates (Grenier Bio-One, 384-well, Cat#784075). Part B. Reagent Preparation Prepare the following solutions: • 1. 50 mM Tris-HCl, pH 8: Per 1 L of base buffer, combine 1 M Tris-HCl, pH 8 (50 mL) and distilled water (950 mL). • 2. 1× Assay Buffer: Per 10 mL of 1× Assay Buffer, combine 50 mM Tris-HCl, pH 8 (9958 uL), 1 M MgCl2 (20 uL), 2 M DTT (20 uL), and 10% Tween-20 (2 uL) to provide a final concentration of 50 mM Tris-HCl, pH 8, 2 mM MgCl2, 4 mM DTT, 0.002% Tween-20. • 3. 2× Enzyme Solution: Per 10 mL of 2× Enzyme Solution, combine 1× Assay Buffer and PRC2 complex to provide a final enzyme concentration of 10 nM. • 4. SPA Bead Suspension: Per 1 mL of SPA Bead Suspension, combine PS-PEI coated LEADSeeker beads (40 mg) and H2O (1 mL) to provide a final concentration of 40 mg/mL. • 5. 2× Substrate Solution: Per 10 mL of 2× Substrate Solution, combine 1× Assay Buffer (9728.55 uL), 800 ug/mL mononucleosomes (125 uL), 1 mM cold SAM (4 uL), and 7.02 uM 3H-SAM (142.45 uL; 0.55 mCi/mL) to provide a final concentration of 5 ug/mL nucleosomes, 0.2 uM cold SAM, and 0.05 uM 3H-SAM. • 6. 2.67× Quench/Bead Mixture: Per 10 mL of 2.67× Quench/Bead Mixture, combine ddH2O (9358 uL), 10 mM cold SAM (267 uL), 40 mg/mL Bead Suspension (375 uL) to provide a final concentration of 100 uM cold SAM and 0.5 mg/mL SPA beads. Part C. Assay Reaction in 384-well Grenier Bio-One Plates Compound Addition • 1. Dispense 100 nL/well of 100× Compound to test wells (as noted above). • 2. Dispense 100 nL/well of 100% DMSO to columns 6 & 18 for high and low controls, respectively. Assay • 1. Dispense 5 uL/well of 1× Assay Buffer to column 18 (low control reactions). • 2. Dispense 5 uL/well of 2× Enzyme Solution to columns 1-17, 19-24. • 3. Spin assay plates for ˜1 min at 500 rpm. • 4. Stack the assay plates, covering the top plate. • 5. Incubate the compound/DMSO with the enzyme for 30 min at room temperature. • 6. Dispense 5 uL/well of 2× Substrate Solution to columns 1-24. • 7. Spin assay plates for ˜1 min at 500 rpm. • 8. Stack the assay plates, covering the top plate. • 9. Incubate the assay plates at room temperature for 1 hour. Quench/Bead Addition • 1. Dispense 5 uL/well of the 3× Quench/Bead Mixture to columns 1-24. • 2. Seal the top of each assay plate with adhesive TopSeal. • 3. Spin assay plates for ˜1 min at 500 rpm. • 4. Equilibrate the plates for >20 min. Read plates • 1. Read the assay plates on the Viewlux Plate Reader utilizing the 613 nm emission filter with a 300 s read time.
Reagent addition can be done manually or with automated liquid handler. • The final DMSO concentration in this assay is 1%. • The positive control is in column 6; negative control is in column 18. • Final starting concentration of compounds is 100 µM. Results
Percent inhibition was calculated relative to the DMSO control for each compound concentration and the resulting values were fit using standard IC50 fitting parameters within the ABASE data fitting software package.

[2] = biological target: T1, EZH2 within the PRC2 complex; assay: EZH2 methyltransferase SPA, biotinylated histone H3K27 peptide substrate (Assay Protocol 2); assay type: biochemical; settings: 3H-SAM, ≦10 nM approaches limit of detection
Summary of the method: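 Scintillation proximity read-out of 3H-methyl transfer onto biotinylated unmethylated H3K27 peptide (10 uM) captured on streptavidin beads; SAM 0.15 uM tritiated plus 2.85 uM cold.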

T1 sequence (Q15910 whole entry): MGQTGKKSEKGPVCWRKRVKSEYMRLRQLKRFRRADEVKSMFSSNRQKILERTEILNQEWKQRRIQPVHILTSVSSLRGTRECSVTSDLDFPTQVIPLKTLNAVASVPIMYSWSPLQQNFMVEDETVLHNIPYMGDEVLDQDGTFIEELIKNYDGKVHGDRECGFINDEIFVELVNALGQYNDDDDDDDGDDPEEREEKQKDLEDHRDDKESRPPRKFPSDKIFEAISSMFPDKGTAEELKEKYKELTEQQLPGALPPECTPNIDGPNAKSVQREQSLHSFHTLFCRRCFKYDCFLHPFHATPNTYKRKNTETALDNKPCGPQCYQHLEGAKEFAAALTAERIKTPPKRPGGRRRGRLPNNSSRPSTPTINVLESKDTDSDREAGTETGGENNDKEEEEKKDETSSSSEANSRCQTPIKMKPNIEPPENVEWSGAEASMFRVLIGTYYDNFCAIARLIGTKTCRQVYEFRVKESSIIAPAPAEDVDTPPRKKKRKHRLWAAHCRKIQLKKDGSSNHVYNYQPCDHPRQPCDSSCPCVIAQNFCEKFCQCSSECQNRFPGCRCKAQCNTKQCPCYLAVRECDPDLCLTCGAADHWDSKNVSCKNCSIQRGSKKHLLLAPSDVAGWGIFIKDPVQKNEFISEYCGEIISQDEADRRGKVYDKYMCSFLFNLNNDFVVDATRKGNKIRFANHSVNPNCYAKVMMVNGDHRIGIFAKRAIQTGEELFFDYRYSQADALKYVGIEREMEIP
T1 sequence (O75530 whole entry partner): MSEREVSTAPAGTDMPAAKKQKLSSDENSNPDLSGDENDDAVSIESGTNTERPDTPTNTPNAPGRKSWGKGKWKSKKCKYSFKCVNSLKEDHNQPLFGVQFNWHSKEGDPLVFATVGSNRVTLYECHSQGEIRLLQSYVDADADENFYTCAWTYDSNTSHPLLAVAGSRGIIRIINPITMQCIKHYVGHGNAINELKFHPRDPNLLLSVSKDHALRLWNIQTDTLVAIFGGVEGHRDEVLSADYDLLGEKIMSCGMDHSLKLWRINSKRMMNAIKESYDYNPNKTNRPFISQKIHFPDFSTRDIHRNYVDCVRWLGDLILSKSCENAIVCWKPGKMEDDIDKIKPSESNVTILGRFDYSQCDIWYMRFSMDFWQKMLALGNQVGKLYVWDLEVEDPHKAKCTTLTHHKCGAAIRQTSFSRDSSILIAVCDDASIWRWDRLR
T1 sequence (Q15022 whole entry partner): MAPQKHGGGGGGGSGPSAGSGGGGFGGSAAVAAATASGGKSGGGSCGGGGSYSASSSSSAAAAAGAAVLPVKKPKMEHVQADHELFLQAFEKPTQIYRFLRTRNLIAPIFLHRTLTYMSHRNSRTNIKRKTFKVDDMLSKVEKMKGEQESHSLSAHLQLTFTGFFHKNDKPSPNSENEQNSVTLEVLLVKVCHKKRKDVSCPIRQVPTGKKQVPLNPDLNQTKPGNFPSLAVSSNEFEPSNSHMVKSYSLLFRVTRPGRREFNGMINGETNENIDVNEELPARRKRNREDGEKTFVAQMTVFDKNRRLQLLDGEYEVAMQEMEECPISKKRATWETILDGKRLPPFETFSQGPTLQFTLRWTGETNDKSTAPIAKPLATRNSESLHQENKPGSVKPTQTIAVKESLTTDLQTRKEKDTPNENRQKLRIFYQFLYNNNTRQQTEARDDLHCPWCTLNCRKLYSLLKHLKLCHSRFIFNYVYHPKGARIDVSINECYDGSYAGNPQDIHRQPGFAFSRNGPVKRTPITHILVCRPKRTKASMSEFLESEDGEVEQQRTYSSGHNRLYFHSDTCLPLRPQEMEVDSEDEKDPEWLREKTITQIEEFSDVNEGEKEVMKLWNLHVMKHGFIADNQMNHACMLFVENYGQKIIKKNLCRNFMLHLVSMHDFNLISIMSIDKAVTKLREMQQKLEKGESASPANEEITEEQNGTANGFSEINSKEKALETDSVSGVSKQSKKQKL
T1 sequence (Q09028 whole entry partner): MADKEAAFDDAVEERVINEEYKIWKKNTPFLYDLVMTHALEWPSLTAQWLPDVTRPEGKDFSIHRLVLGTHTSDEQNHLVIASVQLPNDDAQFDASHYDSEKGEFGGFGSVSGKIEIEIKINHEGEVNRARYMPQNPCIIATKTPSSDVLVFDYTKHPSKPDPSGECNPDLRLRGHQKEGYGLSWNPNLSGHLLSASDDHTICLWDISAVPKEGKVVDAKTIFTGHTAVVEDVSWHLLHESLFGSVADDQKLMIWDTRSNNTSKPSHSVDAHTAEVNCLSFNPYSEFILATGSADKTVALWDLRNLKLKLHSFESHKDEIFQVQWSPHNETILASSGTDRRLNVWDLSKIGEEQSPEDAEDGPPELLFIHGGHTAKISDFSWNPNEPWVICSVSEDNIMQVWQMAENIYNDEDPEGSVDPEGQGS
T1 sequence (Q6ZN18 whole entry partner): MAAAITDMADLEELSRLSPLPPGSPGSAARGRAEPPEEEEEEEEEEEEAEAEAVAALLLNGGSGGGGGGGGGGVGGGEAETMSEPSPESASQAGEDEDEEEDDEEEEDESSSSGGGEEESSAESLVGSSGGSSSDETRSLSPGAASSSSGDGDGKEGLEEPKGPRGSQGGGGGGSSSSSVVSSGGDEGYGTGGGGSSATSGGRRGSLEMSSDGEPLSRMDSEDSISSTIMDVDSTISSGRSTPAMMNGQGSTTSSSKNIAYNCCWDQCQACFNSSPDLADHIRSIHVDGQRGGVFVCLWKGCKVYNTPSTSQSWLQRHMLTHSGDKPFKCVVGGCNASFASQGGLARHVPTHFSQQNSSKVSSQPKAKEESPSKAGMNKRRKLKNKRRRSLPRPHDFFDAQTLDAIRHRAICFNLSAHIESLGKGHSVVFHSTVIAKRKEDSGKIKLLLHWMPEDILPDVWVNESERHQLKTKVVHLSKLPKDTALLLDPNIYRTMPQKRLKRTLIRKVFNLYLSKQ

**Q.** Which results are given for `Cc1cc(C)c(CNC(=O)c2csc(N3CCCC3C)c2C)c(=O)[nH]1` (centres unmarked) [Example 25, N-((4,6-Dimethyl-2-oxo-1,2-dihydropyridin-3-yl)methyl)-4-methyl-5-(2-methylpyrrolidin-1-yl)thiophene-3-carboxamide]?
**A.** IC50 [1]: 100 nM; IC50 [2]: 630 nM

**Q.** For `CCN(c1scc(C(=O)NCc2c(C)cc(C)[nH]c2=O)c1C)C1CCOCC1` [Example 6, N-((4,6-dimethyl-2-oxo-1,2-dihydropyridin-3-yl)methyl)-5-(ethyl(tetrahydro-2H-pyran-4-yl)amino)-4-methylthiophene-3-carboxamide], which IC50 [1] is on record?
**A.** 16 nM

**Q.** And the IC50 [2]?
**A.** 16 nM

**Q.** Which IC50 [1] does the source give for `CCN(c1scc(C(=O)NCc2c(C)cc(C)n(C)c2=O)c1C)[C@H]1CC[C@H](N(C)C)CC1` [Example 32, 5-(((trans)-4-(Dimethylamino)cyclohexyl)(ethyl)amino)-4-methyl-N-((1,4,6-trimethyl-2-oxo-1,2-dihydropyridin-3-yl)methyl)thiophene-3-carboxamide] here?
**A.** ≤ 10 nM

**Q.** And the IC50 [2]?
**A.** 50 nM

**Q.** What does the source list for `CCN(c1scc(C(=O)NCc2c(C)cc(C)[nH]c2=O)c1C)[C@H]1CC[C@H](N(C)C)CC1` [Example 8, N-((4,6-dimethyl-2-oxo-1,2-dihydropyridin-3-yl)methyl)-5-(((trans)-4-(dimethylamino)cyclohexyl)(ethyl)amino)-4-methylthiophene-3-carboxamide]?
**A.** IC50 [1]: ≤ 10 nM; IC50 [2]: 13 nM

**Q.** For `CCN(c1csc(C(=O)NCc2c(C)cc(C)[nH]c2=O)c1C)C1CCOCC1` [Example 2, N-((4,6-Dimethyl-2-oxo-1,2-dihydropyridin-3-yl)methyl)-4-(ethyl(tetrahydro-2H-pyran-4-yl)amino)-3-methylthiophene-2-carboxamide], which IC50 [1] is on record?
**A.** 63 nM

**Q.** What about the IC50 [2] of the same molecule?
**A.** 200 nM

**Q.** How did the IC50 [1] turn out when `Cc1cc(C)c(CNC(=O)c2csc(C(O)C3CCNCC3)c2C)c(=O)[nH]1` (centres unmarked) [Example 21, N-((4,6-dimethyl-2-oxo-1,2-dihydropyridin-3-yl)methyl)-5-(hydroxy(piperidin-4-yl)methyl)-4-methylthiophene-3-carboxamide] was run?
**A.** 100 nM

**Q.** What about the IC50 [2] of the same molecule?
**A.** 316 nM

**Q.** `Cc1cc(C)c(CNC(=O)c2csc(C(C)N3CCC(N(C)C)CC3)c2)c(=O)[nH]1` (centres unmarked) [Example 13, N-((4,6-dimethyl-2-oxo-1,2-dihydropyridin-3-yl)methyl)-5-(1-(4-(dimethylamino)piperidin-1-yl)ethyl)thiophene-3-carboxamide] was tested. Which IC50 [1] did it give?
**A.** 316 nM

**Q.** And the IC50 [2]?
**A.** 2000 nM

**Q.** With `Cc1cc(C)c(CNC(=O)c2cnn(CC3CCOCC3)c2C)c(=O)[nH]1` [Example 10, N-((4,6-dimethyl-2-oxo-1,2-dihydropyridin-3-yl)methyl)-5-methyl-1-((tetrahydro-2H-pyran-4-yl)methyl)-1H-pyrazole-4-carboxamide] as the molecule, how does the IC50 [1] read?
**A.** 15800 nM

**Q.** And the IC50 [2]?
**A.** ≥ 100000 nM

**Q.** What does the source list for `CCN(c1scc(C(=O)NCc2c(C)cc(C(F)(F)F)[nH]c2=O)c1C)[C@H]1CC[C@H](N(C)C)CC1` [Example 17, 5-(((trans)-4-(Dimethylamino)cyclohexyl)(ethyl)amino)-4-methyl-N-((4-methyl-2-oxo-6-(trifluoromethyl)-1,2-dihydropyridin-3-yl)methyl)thiophene-3-carboxamide]?
**A.** IC50 [1]: 316 nM; IC50 [2]: 630 nM

**Q.** How did the IC50 [1] turn out when `Cc1cc(C)c(CNC(=O)c2csc(C3CCCN3C3CCOCC3)c2C)c(=O)[nH]1` (centres unmarked) [Example 22, N-((4,6-Dimethyl-2-oxo-1,2-dihydropyridin-3-yl)methyl)-4-methyl-5-(1-(tetrahydro-2H-pyran-4-yl)pyrrolidin-2-yl)thiophene-3-carboxamide] was run?
**A.** 398 nM

**Q.** And the IC50 [2]?
**A.** 6310 nM

**Q.** What does the source list for `CCN(c1c(Cl)sc(C(=O)NCc2c(C)cc(C)[nH]c2=O)c1C)C1CCOCC1` [Example 3, 5-Chloro-N-((4,6-dimethyl-2-oxo-1,2-dihydropyridin-3-yl)methyl)-4-(ethyl(tetrahydro-2H-pyran-4-yl)amino)-3-methylthiophene-2-carboxamide]?
**A.** IC50 [1]: 100 nM; IC50 [2]: 200 nM

**Q.** What does the source list for `Cc1cc(C)c(CNC(=O)c2csc(C(C)N3CCC(N(C)C)CC3)c2C)c(=O)[nH]1` (centres unmarked) [Example 27, N-((4,6-dimethyl-2-oxo-1,2-dihydropyridin-3-yl)methyl)-5-(1-(4-(dimethylamino)piperidin-1-yl)ethyl)-4-methylthiophene-3-carboxamide hydrochloride]?
**A.** IC50 [1]: 31 nM; IC50 [2]: 63 nM

**Q.** Which IC50 [1] does the source give for `CCC(c1scc(C(=O)NCc2c(C)cc(C)[nH]c2=O)c1C)N1CCOCC1` (centres unmarked) [Example 29, N-((4,6-dimethyl-2-oxo-1,2-dihydropyridin-3-yl)methyl)-4-methyl-5-(1-morpholinopropyl)thiophene-3-carboxamide] here?
**A.** 398 nM

**Q.** What about the IC50 [2] of the same molecule?
**A.** 3160 nM

**Q.** Which IC50 [1] does the source give for `Cc1cc(C)c(CNC(=O)c2csc(-c3cnn(C4CCNCC4)c3)c2C)c(=O)[nH]1` [Example 23, N-((4,6-dimethyl-2-oxo-1,2-dihydropyridin-3-yl)methyl)-4-methyl-5-(1-(piperidin-4-yl)-1H-pyrazol-4-yl)thiophene-3-carboxamide] here?
**A.** 501 nM

**Q.** What about the IC50 [2] of the same molecule?
**A.** 3980 nM

**Q.** With `CCN(c1csc(C(=O)NCc2c(C)cc(C)[nH]c2=O)c1C)[C@H]1CC[C@@H](N(C)C)CC1` [Example 5, N-((4,6-dimethyl-2-oxo-1,2-dihydropyridin-3-yl)methyl)-4-(((cis)-4-(dimethylamino)cyclohexyl)(ethyl)amino)-3-methylthiophene-2-carboxamide] as the molecule, how does the IC50 [1] read?
**A.** 32 nM

**Q.** What about the IC50 [2] of the same molecule?
**A.** 50 nM

**Q.** Which IC50 [1] does the source give for `CCN(c1scc(C(=O)NCc2c(OC)cc(C)[nH]c2=O)c1C)[C@H]1CC[C@H](N(C)C)CC1` [Example 18, 5-(((trans)-4-(Dimethylamino)cyclohexyl)(ethyl)amino)-N-((4-methoxy-6-methyl-2-oxo-1,2-dihydropyridin-3-yl)methyl)-4-methylthiophene-3-carboxamide] here?
**A.** ≤ 10 nM

**Q.** What about the IC50 [2] of the same molecule?
**A.** 13 nM

**Q.** With `Cc1cc(C)c(CNC(=O)c2csc(C(C)N3CCOCC3)c2C)c(=O)[nH]1` (centres unmarked) [Example 26, N-((4,6-dimethyl-2-oxo-1,2-dihydropyridin-3-yl)methyl)-4-methyl-5-(1-morpholinoethyl)thiophene-3-carboxamide] as the molecule, how does the IC50 [1] read?
**A.** 630 nM

**Q.** And the IC50 [2]?
**A.** 5010 nM

**Q.** What does the source list for `CCN(c1scc(C(=O)NCc2c(C)cc(C)[nH]c2=O)c1C)[C@H]1CC[C@@H](N(C)C)CC1` [Example 7, N-((4,6-dimethyl-2-oxo-1,2-dihydropyridin-3-yl)methyl)-5-(((cis)-4-(dimethylamino)cyclohexyl)(ethyl)amino)-4-methylthiophene-3-carboxamide]?
**A.** IC50 [1]: ≤ 10 nM; IC50 [2]: 20 nM

**Q.** Which IC50 [1] does the source give for `Cc1cc(C)c(CNC(=O)c2csc(C3CCN(C(=O)OC(C)(C)C)C3)c2C)c(=O)[nH]1` (centres unmarked) [Example 24, tert-Butyl 3-(4-(((4,6-dimethyl-2-oxo-1,2-dihydropyridin-3-yl)methyl)carbamoyl)-3-methylthiophen-2-yl)pyrrolidine-1-carboxylate] here?
**A.** 251 nM

**Q.** What about the IC50 [2] of the same molecule?
**A.** 3980 nM

— US9505745B2, “Enhancer of zeste homolog 2 inhibitors” (GlaxoSmithKline Intellectual Property (No.2) Limited, priority 2013, dated 2016)
